# According to PubChem BioAssay AID2423 (Broad Institute, 2010):
# pEC50: −log10 of the molar value. Inconclusive results are not listed. Calls of active or inactive are those of the source. No rule for the calls is given here.
# System: C. albicans CaCi-8 + fluconazole, Alamar Blue growth, 48 h
# Assay: resistant C. albicans growth inhibition with fluconazole, dose response, CaCi-8 strain, Alamar Blue fluorescence (AID 2423)
Structure (SMILES),pEC50,EC50
COc1cccc(F)c1C(C[N+](=O)[O-])c1c(N)n(C)c(=O)n(C)c1=O (stereo not given),5.78,
CCc1ccc(OCC(=O)NNC(=S)NC(=O)C2CCCCC2)c(Br)c1,5.75,
O=C(NCc1ccco1)c1ccccc1NS(=O)(=O)c1ccc(Br)s1,,> 16000 nM (inactive)
CC(C)C(=O)NC(c1cccs1)c1cc([N+](=O)[O-])c2cccnc2c1O (stereo not given),6.11,
O=S(=O)(Nc1cccc2cccnc12)c1ccc(S(=O)(=O)N2CCCC2)cc1,5.25,
Cc1ccc(C(=O)NC(=S)NNC(=O)CC#N)cc1,,> 15000 nM (inactive)
Cc1nc2sc(C(c3cccc(F)c3)N3CCCC(C)C3)c(O)n2n1 (stereo not given),6.10,
O=[N+]([O-])c1cc(Cl)c2cccnc2c1O,6.54,
CCCn1c(Nc2nc3ccccc3n2C)nc2ccccc21,5.93,
Cc1nc(NC(=O)c2c(-c3ccccc3)noc2C)sc1C(=O)N(C)C,4.79,
Cc1ccc(C)c(NC(=S)NNC(=O)c2csc3c2CCC(C)C3)c1 (stereo not given),5.94,
Cc1ccccc1Nc1ncccc1C(=O)N1CCOCC1,,> 16000 nM (inactive)
O=C(Nc1cccc(F)c1)c1ccc2ncsc2c1,5.63,
CCC(C)(C)c1ccc(OCCCC[n+]2cccc(C)c2C)c(C(C)(C)CC)c1,,> 16000 nM (inactive)
C[C@H]1CCC/C=C/C2C[C@H](O)CC2[C@H](O)/C=C/C(=O)O1 (stereo not given in full),5.69,
O=c1cnnc(N/N=C/c2ccccn2)[nH]1,6.06,
C/C(=N/NC(=O)c1ccccc1O)c1ccc(N2C(=O)C3CCCCC3C2=O)cc1 (stereo not given),,> 16000 nM (inactive)
CCc1ccccc1NC(=S)N=Nc1c(O)n(C)c2ccc(S(=O)(=O)N3CCOCC3)cc12,5.29,
Oc1cccc(C(Nc2nccs2)c2ccc3cccnc3c2O)c1 (stereo not given),5.86,
CCCC(=O)NC(c1ccc(C)cc1)c1ccc2cccnc2c1O (stereo not given),6.15,
O=C(Cc1ccc(O)cc1)N/N=C/c1cccnc1,,> 16000 nM (inactive)
Cc1ccc(SCC(=O)Nc2ccc3c(c2)C(=O)N(C)C3=O)cc1,,> 15000 nM (inactive)
O=C(Nc1nc(=O)c2ccccc2s1)c1ccccc1,,> 15000 nM (inactive)
CCN(CC)c1ccc(/C=C/c2cccc[n+]2C)c(OC)c1,5.91,
O=C(Oc1c(CN2CCOCC2)cc(Cl)c2cccnc12)c1ccccc1Br,5.38,
CCC(C)n1cnc2c(c1=O)c1nc3ccccc3nc1n2Cc1ccc(OC)cc1 (stereo not given),6.21,
Cc1c(Cl)ccc(S(=O)(=O)Nc2cccnc2)c1Cl,,> 15000 nM (inactive)

Structure (SMILES),pEC50,EC50
CCCCC(=O)NC(c1ccco1)c1cc(Cl)c2cccnc2c1O (stereo not given),6.20,
O=C(CN1C(=O)S/C(=C\c2ccccn2)C1=O)Nc1ccccc1,,> 15000 nM (inactive)
COc1ccc(CCNC(=O)c2c(O)c3ccccc3n(C)c2=O)cc1,,> 15000 nM (inactive)
O=[N+]([O-])c1ccc(O)c(/C=N/NC(=S)Nc2ccc(Cl)cc2Cl)c1,5.73,
CCCC(=O)NC(c1ccc(Cl)cc1)c1ccc2cccnc2c1O (stereo not given),6.27,
O=C(NNC(=S)NC(=O)c1ccccc1)c1ccc([N+](=O)[O-])cc1,5.39,
CCN(CC)C(=O)Cn1c(=O)n(-c2ccccc2)c(=O)c2c3c(sc21)CCC3,,> 16000 nM (inactive)
O=C(Nc1cc(F)cc(F)c1)c1ccc(NCCCN2CCCCCC2)c([N+](=O)[O-])c1,,> 16000 nM (inactive)
CC1CCN(Cc2c(C(=O)N/N=C/c3cc(Cl)ccc3O)nnn2-c2nonc2N)CC1,6.16,
Cc1ccc(C(=O)NCc2ccco2)cc1S(=O)(=O)Nc1cccc(Cl)c1,,> 15000 nM (inactive)
CCN(CC)c1nc(-c2ccccn2)nc(-c2ccccc2)c1C#N,5.38,
NC1=NC(=O)C(Cc2cccc(Cl)c2Cl)S1 (stereo not given),,> 16000 nM (inactive)
O=[N+]([O-])c1cccc(-c2cc(-c3cc(Br)ccc3O)[nH]n2)c1,6.06,
O=C(N/N=C/c1sc(N2CCCCC2)nc1-c1cccs1)c1cccnc1,5.83,
COc1ccc(O)c(/C=N/NC(=O)c2ccc(CSc3nc(C)cc(C)n3)cc2)c1,5.75,
O=c1[nH]c(-c2ccccn2)nc(C(F)(F)F)c1Br,6.31,
O=C(CCCCCN1C(=O)c2cccc3cccc(c23)C1=O)N1CCOCC1,,> 15000 nM (inactive)
CC(C)(C)CC(=O)Nc1nnc(C(F)(F)F)s1,,> 16000 nM (inactive)
N=C(N)c1ccc(/C=C/c2ccc(C(=N)N)cc2O)cc1,,> 15000 nM (inactive)
Cc1ccc(S(=O)(=O)C(C#N)c2nc3ccccc3nc2N2CCN(C)CC2)cc1C (stereo not given),4.80,
C=CC(C)(C)c1c(O)c(CC=C(C)C)c(O)c2c(=O)c3ccc(O)c(O)c3oc12,5.47,
CC(=O)c1cc(C#N)c(N2CCCC2)nc1C,,> 16000 nM (inactive)
Cn1c(O)c(/C=N/NC(=O)c2cc3ccccc3cc2O)c2ccccc21,5.27,
Oc1c(C(c2ccc(Cl)cc2)N2CCCC2)cc(Cl)c2cccnc12 (stereo not given),6.16,
CCOc1ccccc1NC(=O)C(=O)N/N=C/c1cc(Br)ccc1O,5.86,
Cc1sc(NC(=O)c2ccc(Br)s2)c(C(N)=O)c1C,6.02,
O=C1CCCN1CCCN=c1c([N+](=O)[O-])nn(-c2ccc(Cl)cc2)n1O,5.21,

Structure (SMILES),pEC50,EC50
Oc1c(Br)cc(Br)cc1CNc1cccc2cccnc12,,> 15000 nM (inactive)
COc1ccc(N(C(=O)Cn2nnc3ccccc32)C(C(=O)NC(C)(C)C)c2ccc(OC)c(O)c2)cc1 (stereo not given),5.66,
BrC(=C\c1ccccc1)/C=N/n1cnnc1,5.80,
COc1ccc(C(=O)N2c3ccccc3C=CC2C#N)cc1 (stereo not given),5.76,
CCCCn1c(CN2CCN(C(=O)OCC)CC2)nc2c1c(=O)n(C)c(=O)n2C,,> 15000 nM (inactive)
O=C(Nc1ccccc1O)c1ccccc1O,6.11,
Nc1nc(N)c2cc(Sc3ccc4ccccc4c3)ccc2n1,5.93,
COc1ccc2c(c1)/C(=C/c1cnc[nH]1)C(=O)N2,5.90,
CCN1/C(=C/c2sc(-c3ccccc3C)c[n+]2C)Sc2ccccc21,6.54,
COc1cc(-c2nnc(SCc3cc(=O)oc4cc(O)c(O)cc34)o2)cc(OC)c1OC,5.36,
COCCNC(=O)CCCn1c(=O)c2cc(OC)c(OC)cc2n(CC(=O)NCCC2=CCCCC2)c1=O,5.27,
Cc1csc2ncnc(NCCc3ccccn3)c12,5.22,
O=C(NNC(=S)NC1CCCCC1)c1ccccc1Br,,> 16000 nM (inactive)
Cc1noc(NC(=O)c2ccc(Cl)c(Cl)c2)c1Cl,,> 15000 nM (inactive)
CCCOC(=O)/C(=C\c1ccc([N+](=O)[O-])o1)NC(=O)c1ccccc1,,> 16000 nM (inactive)
O=C(CNc1ccc2ccccc2c1)N/N=C/c1ccc([N+](=O)[O-])o1,5.89,
O=C(N/N=C/c1ccccc1O)c1cccc(C(F)(F)F)c1,5.73,
COc1ccc(-c2nn(-c3ccccc3)cc2/C=N/NC(=S)NC(C)C)cc1OC,5.72,
c1ccc2c(c1)OCC(CNc1ncnc3sccc13)O2 (stereo not given),5.40,
Nc1ncnc(Sc2ncccn2)c1[N+](=O)[O-],6.32,
Cc1onc(-c2c(Cl)cccc2Cl)c1C(=O)N/N=C(\N)COc1ccc(Cl)cc1,5.77,
CCN(CC)c1ccc(/C=N/NC(=O)c2nnn(-c3nonc3N)c2C(C)C)c(O)c1,6.33,
COC(=O)c1c(C(=O)OC)c(-c2ccc(Cl)c(Cl)c2)n2c1CCC2,5.05,
COc1ccc(C2N=C(Nc3ccc(C)cc3)Nc3nc(C)cc(=O)n32)cc1 (stereo not given),,> 16000 nM (inactive)
O=C(NC(=S)NNC(=O)c1cnccn1)c1ccc(Cl)cc1,5.47,
Cc1cc(C)c2ccc(N)nc2c1O,4.85,
